Experiments:
B16-F0 = experiment: Cytotoxicity assay G50, MTT or resazurin (Example 29); format: cell-based; conditions: Mus musculus, B16F0; cell line B16-F0
Procedure: (§1) Cell culture. Tumor cell lines (B16-F0, Caco-2, DU-145, HT-29, MDA-MB-231 and other cell lines described so far in the patent application) were obtained from the American Type Culture Collection (ATCC HTB-26; Bethesda, Md.). Cells were grown in RPMI 1640 medium supplemented with 10% fetal bovine serum (Hyclone, Road Logan, Utah) and were cultured in a humidified atmosphere at 37° C. in 5% CO2.
(§2) Drugs: All drugs were dissolved in DMSO and the final concentration of DMSO in the culture medium was maintained at 0.5% (v/v).
(§3) Cytotoxiciy assays. At day-1, tumor cells in suspension in 100 μl were plated in microtiter plates (96 wells). On day-0, tumor cells were treated by addition of escalating concentrations of the drug (100 μl solution). On that day, the number of living cells was determined in wells that were untreated. The number of living cells is determined using either MTT or resazurin assays. Growth inhibition activity of these compounds was expressed as the concentration of CAU inhibiting cell growth by 50% G50 in the following table
(§4) The MTT assay was as described above in Example 1. The Resazurin assay was performed as follows:
(§5) Aspirate the supernatant (cell suspension: centrifuge first)
(§6) Add 100 μL NaCl 0.9% (saline)
(§7) Add 50 μL RZ (resazurin 125 μg/ml/PBS: RPMI without FBS; 1:4)
(§8) Collect fluorescence data at different time.

Caco-2 = experiment: as above; format: cell-based; conditions: Homo sapiens; cell line Caco-2
Procedure: as §1, §2, §3, §4, §5, §6, §7, §8

DU-145 = experiment: as above; format: cell-based; conditions: Homo sapiens; cell line DU-145
Procedure: as §1, §2, §3, §4, §5, §6, §7, §8

HT-29 = experiment: as above; format: cell-based; conditions: Homo sapiens; cell line HT-29
Procedure: as §1, §2, §3, §4, §5, §6, §7, §8

MDA-MB-231 = experiment: as above; format: cell-based; conditions: Homo sapiens; cell line MDA-MB-231
Procedure: as §1, §2, §3, §4, §5, §6, §7, §8

CHO = experiment: as above; format: cell-based, Chinese Hamster; conditions: Cricetulus griseus; cell line CHO
Procedure: as §4, §5, §6, §7, §8

K562 = experiment: as above; format: cell-based; conditions: Homo sapiens; cell line K562
Procedure: as §4, §5, §6, §7, §8

L1210 = experiment: as above; format: cell-based; conditions: Mus musculus; cell line L1210
Procedure: as §4, §5, §6, §7, §8

MCF-7 = experiment: as above; format: cell-based; conditions: Homo sapiens, MCF7; cell line MCF-7
Procedure: as §4, §5, §6, §7, §8

T24 = experiment: as above; format: cell-based; conditions: Homo sapiens, T-24; cell line T24
Procedure: as §4, §5, §6, §7, §8

[1] = test system: L1210 (mouse leukemia cells); experiment: In-vitro cytotoxicity, MTT assay (Example 1); format: cell-based; conditions: L1210, 120 h, Table I, four to five days in the presence of drugs
Procedure: (§9) The conventional evaluation method proposed by the American National Cancer Institute was used. The method measures effectiveness of an anti-cancer drug based on IC50 which symbolizes the drug concentration in μM at which the drug achieves the inhibition of proliferation of a given line of cancer cells by a factor of one half when compared to the normal proliferation of the same line of cancer cells in the same growth media
(§10) CAU were tested on several cell lines including human non-hormone-dependant breast cancer cells (MDA-MB-231), and mouse leukemia (L1210). MDA-MB-231. These cell lines were obtained from the American Type Culture Collection (Bethesda, Md., USA). Cytotoxicity of CAU derivatives was tested and compared to the effect of chlorambucil and carmustine.
(§11) Tumor cells were grown in RPMI-1640 medium supplemented with 10% fetal calf serum, 2 mM glutamine and 64 U/mL of gentamycin. Cells were routinely passaged at 90% confluence.
(§12) Five thousand cells (100 μl) were seeded in 96 well's plate and incubated for one day at 37° C. under a humidified atmosphere, in presence of 5% CO2. […]
(§13) Cell's survival was evaluated by colorimetric assay using MTT, according to a modification of the procedure reported by Carmichael and coil. […] The plates were then shaken for 15 minutes and the absorbance read at 570 nm with a Behring Elisa Procesor II (Behring, Marburg, Germany). […]

[2] = test system: MDA-MB-231 (human breast cancer cells); experiment: In-vitro cytotoxicity, MTT assay (Example 1); format: cell-based; conditions: MDA-MB-231, 120 h, Table I, four to five days in the presence of drugs
Procedure: as §9, §10, §11, §12, §13

Compound: CCCCCCOc1ccc(NC(=O)N[C@H](C)CCl)cc1 [Example 26]
- IC50 (B16-F0): 6.38 µM
- IC50 (Caco-2): 8.57 µM
- IC50 (DU-145): 13.2 µM
- IC50 (HT-29): 9.55 µM
- IC50 (MDA-MB-231): 10.5 µM
- IC50 (CHO): 2.63 µM
- IC50 (K562): 2.68 µM
- IC50 (L1210): 6.21 µM
- IC50 (MCF-7): 8.3 µM
- IC50 (T24): 7.14 µM

Compound: CCCC(CCl)NC(=O)Nc1ccc(C2CCCCC2)cc1 (racemic) [Example 25]
- IC50 (B16-F0): 4.14 µM
- IC50 (Caco-2): 6.04 µM
- IC50 (DU-145): 4.3 µM
- IC50 (HT-29): 3.03 µM
- IC50 (MDA-MB-231): 6.37 µM
- IC50 (CHO): 2.12 µM
- IC50 (K562): 4.93 µM
- IC50 (L1210): 4.12 µM
- IC50 (MCF-7): 5.05 µM
- IC50 (T24): 4.24 µM

Compound: CCCCCCCc1ccc(NC(=O)N[C@H](C)CCl)cc1 [Example 21]
- IC50 (B16-F0): 3.79 µM
- IC50 (Caco-2): 4.94 µM
- IC50 (DU-145): 3.63 µM
- IC50 (HT-29): 2.17 µM
- IC50 (MDA-MB-231): 4.64 µM
- IC50 (CHO): 3.46 µM
- IC50 (K562): 2.41 µM
- IC50 (L1210): 2.42 µM
- IC50 (MCF-7): 3.31 µM
- IC50 (T24): 2.18 µM

Compound: CCCCCCOc1ccc(NC(=O)N[C@@H](C)CCl)cc1 [Example 27]
- IC50 (B16-F0): 8.45 µM
- IC50 (Caco-2): 7.98 µM
- IC50 (DU-145): 12.6 µM
- IC50 (HT-29): 10.5 µM
- IC50 (MDA-MB-231): 9.08 µM
- IC50 (CHO): 3.66 µM
- IC50 (K562): 7.48 µM
- IC50 (L1210): 8.2 µM
- IC50 (MCF-7): 7.99 µM
- IC50 (T24): 9.93 µM

Compound: O=NN(CCCl)C(=O)NCCCl [Carmustine, carmustine]
- IC50 [1]: 4.5 µM
- IC50 [2]: 6.8 µM

Reference: US6686394B1, “Aryl-chloro-ethyl ureas” (Sovar, Societe en Commandite, priority 1999, dated 2004)
